Results reported in patent publication US5994384A, “Pharmaceutical compositions of levo-enantiomers of medetomidine derivatives and their use” (Orion Corporation, priority 1995, dated 1999).

How the values were obtained:
adrenergic α-2 receptors [1] = target: T1, adrenergic α-2 receptors (Homo sapiens, UniProt P08913); assay: cell-based; parameters: This cell line has been used as a model system for studying adrenergic α-2 receptors; endogenous in cells; host or cells: HEL (human erythroleukemia) cells
T1 sequence (P08913 1-465): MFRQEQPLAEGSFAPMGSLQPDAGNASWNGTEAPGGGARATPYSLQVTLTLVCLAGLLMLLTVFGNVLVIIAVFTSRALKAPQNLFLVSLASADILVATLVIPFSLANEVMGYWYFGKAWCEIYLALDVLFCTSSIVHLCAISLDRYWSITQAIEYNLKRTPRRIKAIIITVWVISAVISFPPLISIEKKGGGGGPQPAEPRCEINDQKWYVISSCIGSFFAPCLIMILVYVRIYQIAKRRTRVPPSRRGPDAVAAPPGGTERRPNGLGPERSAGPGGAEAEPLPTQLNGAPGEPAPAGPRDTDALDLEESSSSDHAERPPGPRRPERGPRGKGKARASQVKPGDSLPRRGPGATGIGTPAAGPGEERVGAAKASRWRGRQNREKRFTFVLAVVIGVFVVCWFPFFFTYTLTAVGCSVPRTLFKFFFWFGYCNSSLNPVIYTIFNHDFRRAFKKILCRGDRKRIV
Protocol: The intracellular concentration of cAMP was measured by prelabelling the cells with [^3 H]adenine (Amersham, UK) as described by Jansson et al (1985, Eur. J. Pharmacol. […], 165). Separation of [^3 H]ATP and [^3 H]cAMP was achieved by the method of Salomon et al. (1974, Anal. Biochem. 58, 541). Conversion of cell-associated [^3 H]ATP to [^3 H]cAMP was expressed as a percentage of the total radioactivity and normalized to the percentage recovery of [^14 C]cAMP tracer.

adrenergic α-2 receptors [2] = target: T1, adrenergic α-2 receptors; settings: HEL cells; for antagonism of receptor activation to UK 14,304 by prior administration: intracellular Ca2+, 10 μM UK 14,304, 10 μM I-medetomidine, 1 μM rauwolscine
Source text: This system was used to screen different adrenergic α-2 receptor agonists for functional purposes.
The cells were loaded with fura-2/AM (Molecular probes, Junction City, USA). […] The dye responses were calibrated by sequential addition of digitonin and EGTA at the end of the experiment to obtain maximal and minimal fluorescence values, respectively.

increase in the production of cAMP (adrenergic α-2 receptors [1]; hel cells) [fold]	SMILES	decrease of the concentration of Ca2+ level (adrenergic α-2 receptors [2]; 10 μM compound) [nM]	antagonism of receptor activation to UK 14,304 by prior administration (adrenergic α-2 receptors [2])	activation at 10 µM (adrenergic α-2 receptors [1]; HEL, read-out: further stimulation of forskolin stimulated cAMP production) [%]
10	C=C[C@@]1(C)CC(=O)[C@]2(O)[C@@]3(C)[C@@H](O)CCC(C)(C)[C@@H]3[C@H](O)[C@H](OC(C)=O)[C@@]2(C)O1 [forskolin, reference compound]			
	Cc1cccc([C@@H](C)c2cnc[nH]2)c1C [I-medetomidine, Levomedetomidine]	-17 ± 2	did not antagonise receptor activation to UK	42 ± 27
	COC(=O)[C@H]1[C@H]2C[C@H]3c4[nH]c5ccccc5c4CCN3C[C@H]2CC[C@@H]1O [rauwolscine, reference compound]		did	
